Read-outs that look alike come from different tables or passages of the source. Blank lines part the entries; values can stand above or below the compound they belong to.
What was measured:
[1] = log Pow* calculated by Formula 2 from log Pow and the polarity parameter P′(x) of the ethanol/water mixture
[2] = log Pow: distribution coefficient between 1-octanol and water; conditions: 1-octanol/water

Compound: CCC(C)CO (stereo not shown) [2-mebutanol, 2-methylbutanol]
log Pow* (P′ 2%) ([1]; solvent ethanol, proportion 2%): 1.14
log Pow* (P′ 4%) ([1]; solvent ethanol, proportion 4%): 0.99
log Pow* (P′ 6%) ([1]; solvent ethanol, proportion 6%): 0.85
log Pow* (P′ 8%) ([1]; solvent ethanol, proportion 8%): 0.72
log Pow* (P′ 10%) ([1]; solvent ethanol, proportion 10%): 0.59
log Pow* (P′ 30%) ([1]; solvent ethanol, proportion 30%): −0.39
log Pow* (P′ 40%) ([1]; solvent ethanol, proportion 40%): −0.75
log Pow* (P′ 50%) ([1]; solvent ethanol, proportion 50%): −1.05
log Pow* (P′ 60%) ([1]; solvent ethanol, proportion 60%): −1.31
log Pow* (P′ 70%) ([1]; solvent ethanol, proportion 70%): −1.53
log Pow* (P′ 80%) ([1]; solvent ethanol, proportion 80%): −1.73
log Pow* (P′ 90%) ([1]; solvent ethanol, proportion 90%): −1.89
log Pow* (P′ 100%) ([1]; solvent ethanol, proportion 100%): −2.04
log Pow [2]: 1.29

log Pow* (P′ 2%) [1]: 3.11
log Pow* (P′ 4%) [1]: 3.05
log Pow* (P′ 6%) [1]: 2.99
log Pow* (P′ 8%) [1]: 2.94
log Pow* (P′ 10%) [1]: 2.89
log Pow* (P′ 30%) [1]: 2.49
log Pow* (P′ 40%) [1]: 2.34
log Pow* (P′ 50%) [1]: 2.22
log Pow* (P′ 60%) [1]: 2.11
log Pow* (P′ 70%) [1]: 2.02
log Pow* (P′ 80%) [1]: 1.94
log Pow* (P′ 90%) [1]: 1.87
log Pow* (P′ 100%) [1]: 1.81
log Pow [2]: 3.17
Compound: CC(C)=CCCC(C)=CC=O [Citral]

From US8394442B2, “Process for the preparation of a flavoring concentrate, and a flavoring concentrate” (SYMRISE AG, priority 2007, dated 2013)
